{"source": "BindingDB's records for patent US11084800", "about": "(Achillion Pharmaceuticals, 2021)", "biological_target": "Complement factor D (Homo sapiens, UniProt P00746)", "sequence (P00746 whole entry)": "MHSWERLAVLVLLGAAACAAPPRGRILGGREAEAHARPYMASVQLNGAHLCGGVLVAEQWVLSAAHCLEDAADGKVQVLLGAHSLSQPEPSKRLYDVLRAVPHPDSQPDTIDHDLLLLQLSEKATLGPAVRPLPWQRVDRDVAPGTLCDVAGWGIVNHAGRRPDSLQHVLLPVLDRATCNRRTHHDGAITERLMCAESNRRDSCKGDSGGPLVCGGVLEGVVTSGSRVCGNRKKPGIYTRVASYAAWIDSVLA", "assay": "Factor D Assay", "description": "Human Factor D (purified from human serum, Complement Technology, Inc.) at 80 nM final concentration is incubated with test compound at various concentrations for 5 min at room temperature in 50 mM Tris, 1M NaCl, pH 7.5. A synthetic substrate Z-L-Lys-SBz and DTNB (Ellman's reagent) are added to final concentrations of 100 μM each. Absorbance at 405 nm (A405) is recorded at 30 second intervals for 30 min using a microplate spectrophotometer. IC50 values are calculated by nonlinear regression of complement Factor D reaction rates as a function of test compound concentration.", "data": [{"smiles": "CC(=O)c1nn(CC(=O)N2C[C@H]3C[C@H]3[C@H]2C(=O)N2C[C@H]3C[C@H]3C2C(=O)Nc2nc(Br)ccc2C)c2c(C)cc(-c3cnc(C)nc3)cc12", "note": "(stereo partly specified) [US11084800, Cpd No. 92]", "values": [{"measurement": "IC50", "result": "in the range around 5.5 µM"}]}]}
